Values belong to the substance of their own block, whether it stands above or below them.
What was measured:
MMP-9 [1] = test: Substrate phage display with NGS: relative probability (RP) of P3-P1' tetramer clusters; type: biochemical, human; conditions: for relative_probability: tetramer clusters unique to the MMP-9 selectome, MMP-9 RP
MMP-9 [2] = molecular target: MMP-9 (Homo sapiens, UniProt P14780); test: K(obs) of individual phage substrates (set of 1369); type: biochemical; conditions: MMP9
Sequence of MMP-9 (Homo sapiens, UniProt P14780) (P14780 94-707): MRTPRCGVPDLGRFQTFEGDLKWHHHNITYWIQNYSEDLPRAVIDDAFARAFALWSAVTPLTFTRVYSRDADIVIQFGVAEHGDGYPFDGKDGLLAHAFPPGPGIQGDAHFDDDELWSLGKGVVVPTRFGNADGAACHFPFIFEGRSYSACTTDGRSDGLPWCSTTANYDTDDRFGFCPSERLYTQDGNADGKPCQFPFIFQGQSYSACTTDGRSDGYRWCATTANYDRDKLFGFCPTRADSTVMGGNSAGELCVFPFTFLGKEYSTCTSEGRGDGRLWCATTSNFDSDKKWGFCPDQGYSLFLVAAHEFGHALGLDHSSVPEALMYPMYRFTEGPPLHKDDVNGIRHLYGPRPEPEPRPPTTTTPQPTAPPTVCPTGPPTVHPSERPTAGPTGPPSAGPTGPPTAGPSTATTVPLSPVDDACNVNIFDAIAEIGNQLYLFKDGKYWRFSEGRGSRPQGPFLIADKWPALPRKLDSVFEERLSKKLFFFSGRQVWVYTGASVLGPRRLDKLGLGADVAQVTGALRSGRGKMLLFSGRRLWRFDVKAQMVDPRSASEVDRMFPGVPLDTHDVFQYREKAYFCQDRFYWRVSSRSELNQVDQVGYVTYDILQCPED

MMP-2 [3] = molecular target: T1, MMP-2 (Homo sapiens, UniProt P08253); test: as above; type: biochemical; conditions: MMP2
T1 sequence (P08253 110-660): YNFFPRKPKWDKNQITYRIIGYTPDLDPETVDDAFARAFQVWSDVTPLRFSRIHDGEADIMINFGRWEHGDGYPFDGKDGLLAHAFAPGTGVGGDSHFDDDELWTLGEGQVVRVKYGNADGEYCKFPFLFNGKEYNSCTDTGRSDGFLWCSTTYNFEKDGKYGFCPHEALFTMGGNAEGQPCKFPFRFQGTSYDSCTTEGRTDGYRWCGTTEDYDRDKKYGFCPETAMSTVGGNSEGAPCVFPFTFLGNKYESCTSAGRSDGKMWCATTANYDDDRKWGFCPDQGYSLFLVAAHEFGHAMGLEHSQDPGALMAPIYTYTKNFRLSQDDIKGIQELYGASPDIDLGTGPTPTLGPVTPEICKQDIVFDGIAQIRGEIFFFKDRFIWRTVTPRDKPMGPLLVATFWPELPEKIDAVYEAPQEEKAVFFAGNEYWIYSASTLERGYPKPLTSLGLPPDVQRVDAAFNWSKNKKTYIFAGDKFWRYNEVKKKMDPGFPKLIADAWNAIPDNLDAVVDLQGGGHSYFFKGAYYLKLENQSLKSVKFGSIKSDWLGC

MMP-2 [4] = test: Substrate phage display with NGS: relative probability (RP) of P3-P1' tetramer clusters; type: biochemical, human; conditions: MMP2;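 further: ratio of tetramer probability after protease selection to that in naive phage library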
[5] = tetramer probability in MMP9 set / naive library, 200 nM protease, 2 h, 37°C
[6] = tetramer projected onto MMP-9 cleavage sites determined by Prudova et al. (2010)
[7] = MMP9, RP of the P3-P1' tetramer matching the MS detected cleavage, RP above 4.7, substrate phage display with NGS
[8] = RP according to MMP9, P3-P1' tetramer of unique physiologic MMP9 substrates from MEROPS
[9] = individual phage substrate of the set of 1369 peptides, dash in the sequence marks the cleavage position
[10] = individual phage substrate of the set of 1369 peptides, cleavage position marked by '-'
[11] = RP of the P3-P1' tetramer contained in the substrate
[12] = individual phage substrates, set of 1369 peptides, hyphen in sequence marks cleavage position
[13] = individual phage substrates, set of 1369 peptides, cleavage position marked by hyphen in sequence
[14] = RP of the P3-P1' tetramer contained in the substrate (substrate phage display with NGS)

Substance: PMPL [P3-P1' tetramer cluster]
relative probability (RP) (MMP-9 [1]; [5]): 51.2509

Substance: PMWM [P3-P1' tetramer cluster]
relative probability (RP) (MMP-9 [1]; [5]): 52.3808

Substance: PRGI [P3-P1' tetramer cluster]
relative probability (RP) (MMP-9 [1]; [6]): 47.2

Substance: PRLV
relative probability (RP) (MMP-9 [1]; [7]): 7.12

Substance: PSGI [P3-P1' tetramer cluster]
relative probability (RP) (MMP-9 [1]; [6]): 45.03

Substance: PVGI [P3-P1' tetramer cluster]
relative probability (RP) (MMP-9 [1]; [6]): 46.04

Substance: PVGV [P3-P1' tetramer cluster]
relative probability (RP) (MMP-9 [1]; [6]): 34.33

Substance: PVPQ [P3-P1' tetramer cluster]
relative probability (RP) (MMP-9 [1]; [6]): 29.84

Substance: PWAQ [P3-P1' tetramer cluster]
relative_probability (MMP-9 [1]): 41.83

Substance: PWMI [P3-P1' tetramer cluster]
relative_probability (MMP-9 [1]): 41.91

Substance: PWMM [P3-P1' tetramer cluster]
relative_probability (MMP-9 [1]): 46.92

Substance: PWPH
relative probability (RP) (MMP-9 [1]; [7]): 15.08

Substance: PWWI [P3-P1' tetramer cluster]
relative_probability (MMP-9 [1]): 43.44

Substance: PWWM [P3-P1' tetramer cluster]
relative_probability (MMP-9 [1]): 45.99

Substance: PYAI [P3-P1' tetramer cluster]
relative probability (RP) (MMP-9 [1]; [5]): 51.7522

Substance: TITG
Relative probability (RP) rank (MMP-9 [1]; [8]): 47886
relative probability (RP) (MMP-9 [1]; [8]): 0.16

Substance: TMNM
relative probability (RP) (MMP-9 [1]; [7]): 6.67

Substance: VGSL [P3-P1' tetramer cluster]
relative probability (RP) (MMP-9 [1]; [6]): 7.47

Kobs (MMP-9 [2]; [9]): 451.441 M⁻¹ s⁻¹
Kobs (MMP-2 [3]; [10]): 12792.1 M⁻¹ s⁻¹
Substance: WPMAK-LTASG
relative probability (RP) (MMP-2 [4]; [11]): 21.5229

Kobs (MMP-9 [2]; [12]): 323.705 M⁻¹ s⁻¹
Kobs (MMP-2 [3]; [13]): 3964.21 M⁻¹ s⁻¹
Substance: WQYSN-LTASG
relative probability (RP) (MMP-2 [4]; [14]): 25.2832

Kobs (MMP-9 [2]; [12]): 0 M⁻¹ s⁻¹
Kobs (MMP-2 [3]; [13]): 8941.32 M⁻¹ s⁻¹
Substance: WRYSN-LTASG
relative probability (RP) (MMP-2 [4]; [14]): 25.2832

Kobs (MMP-9 [2]; [9]): 386.839 M⁻¹ s⁻¹
Kobs (MMP-2 [3]; [10]): 1660.66 M⁻¹ s⁻¹
Substance: WVMES-LTASG
relative probability (RP) (MMP-2 [4]; [11]): 8.775

Kobs (MMP-9 [2]; [12]): 113.394 M⁻¹ s⁻¹
Kobs (MMP-2 [3]; [13]): 451.441 M⁻¹ s⁻¹
Substance: YCSLP-LTASG
relative probability (RP) (MMP-2 [4]; [14]): 8.6373

Kobs (MMP-9 [2]; [9]): 0 M⁻¹ s⁻¹
Kobs (MMP-2 [3]; [10]): 0 M⁻¹ s⁻¹
Substance: YDIHF-LTASG
relative probability (RP) (MMP-2 [4]; [11]): 4.537

Kobs (MMP-9 [2]; [9]): 113.394 M⁻¹ s⁻¹
Kobs (MMP-2 [3]; [10]): 12792.1 M⁻¹ s⁻¹
Substance: YDISA-LTASG
relative probability (RP) (MMP-2 [4]; [11]): 31.8319

Kobs (MMP-9 [2]; [9]): 231.616 M⁻¹ s⁻¹
Kobs (MMP-2 [3]; [10]): 1239.69 M⁻¹ s⁻¹
Substance: YDSRG-LTASG
relative probability (RP) (MMP-2 [4]; [11]): 6.164

Kobs (MMP-9 [2]; [12]): 0 M⁻¹ s⁻¹
Kobs (MMP-2 [3]; [13]): 0 M⁻¹ s⁻¹
Substance: YDTQH-LTASG
relative probability (RP) (MMP-2 [4]; [14]): 2.922

Kobs (MMP-9 [2]; [9]): 7815.03 M⁻¹ s⁻¹
Kobs (MMP-2 [3]; [10]): 3253.29 M⁻¹ s⁻¹
Substance: YDVYN-LTASG
relative probability (RP) (MMP-2 [4]; [11]): 19.1818

Kobs (MMP-9 [2]; [12]): 10866.7 M⁻¹ s⁻¹
Kobs (MMP-2 [3]; [13]): 12792.1 M⁻¹ s⁻¹
Substance: YEPRN-VTASG
relative probability (RP) (MMP-2 [4]; [14]): 26.6015

Kobs (MMP-9 [2]; [12]): 12792.1 M⁻¹ s⁻¹
Kobs (MMP-2 [3]; [13]): 10866.7 M⁻¹ s⁻¹
Substance: YKPAG-LTASG
relative probability (RP) (MMP-2 [4]; [14]): 36.0156

Kobs (MMP-9 [2]; [12]): 12792.1 M⁻¹ s⁻¹
Kobs (MMP-2 [3]; [13]): 9740.44 M⁻¹ s⁻¹
Substance: YLVRY-LTASG
relative probability (RP) (MMP-2 [4]; [14]): 18.3724

Kobs (MMP-9 [2]; [12]): 619.843 M⁻¹ s⁻¹
Kobs (MMP-2 [3]; [13]): 799.117 M⁻¹ s⁻¹
Substance: YNWRH-LTASG
relative probability (RP) (MMP-2 [4]; [14]): 0.4087

Kobs (MMP-9 [2]; [9]): 355.093 M⁻¹ s⁻¹
Kobs (MMP-2 [3]; [10]): 12792.1 M⁻¹ s⁻¹
Substance: YPFGS-LTASG
relative probability (RP) (MMP-2 [4]; [11]): 21.9152

Kobs (MMP-9 [2]; [12]): 484.315 M⁻¹ s⁻¹
Kobs (MMP-2 [3]; [13]): 12792.1 M⁻¹ s⁻¹
Substance: YSATN-LTASG
relative probability (RP) (MMP-2 [4]; [14]): 16.0897

Kobs (MMP-9 [2]; [9]): 12792.1 M⁻¹ s⁻¹
Kobs (MMP-2 [3]; [10]): 1660.66 M⁻¹ s⁻¹
Substance: YSPMD-YTASG
relative probability (RP) (MMP-2 [4]; [11]): 10.9087

Kobs (MMP-9 [2]; [9]): 4763.33 M⁻¹ s⁻¹
Kobs (MMP-2 [3]; [10]): 5461.43 M⁻¹ s⁻¹
Substance: YVPTG-LTASG
relative probability (RP) (MMP-2 [4]; [11]): 33.1098

Kobs (MMP-9 [2]; [9]): 12792.1 M⁻¹ s⁻¹
Kobs (MMP-2 [3]; [10]): 12792.1 M⁻¹ s⁻¹
Substance: YYPRA-LTASG
relative probability (RP) (MMP-2 [4]; [11]): 35.2345

— article PMC7932537, “Quantitative profiling of protease specificity” (PLoS Computational Biology, 2021)
